Laboratory results: patent US20230021562A1, “[…] D[…]-1 INHIBITORS” (priority 2019, published 2023)
Several values for one entry are separate records, joined by “and”; a condition that tells them apart may be missing. Equal entries are not always repeated. Where two headings read alike, the source gives them in different places.

What was measured:
MOLP8 cell line = test: MOLP8 CellEvent Caspase-3/7 Green live-cell IncuCyte apoptosis assay; type: cell-based, human; conditions: MOLP8 cells, averaged values
Procedure: (§1) MCL-1 is a regulator of apoptosis and is highly over-expressed in tumor cells that escape cell death. The assay evaluates the cellular potency of small-molecule compounds targeting regulators of the apoptosis pathway, primarily MCL-1, Bfl-1, Bcl-2, and other proteins of the Bcl-2 family. Protein-protein inhibitors disrupting the interaction of anti-apoptotic regulators with BH3-domain proteins initiate apoptosis.
Activation of the apoptotic pathway was measured using the CellEvent™ Caspase-3/7 Green ReadyProbes™ Reagent (Thermo Fisher C10423, C10723). This assay produces a green fluorescent stain in cells that enter the apoptosis pathway. CellEvent® Caspase-3/7 Green reagent is a four amino acid peptide (DEVD) conjugated to a nucleic acid-binding dye that is non-fluorescent when not bound to DNA. The CellEvent® Caspase-3/7 Green reagent is intrinsically non-fluorescent, as the DEVD peptide inhibits binding of the dye to DNA. Upon activation of caspase-3/7 in apoptotic cells, the DEVD peptide is cleaved and the free dye can bind DNA, generating a bright green fluorescence. The activation of Caspase-3 and Caspase-7 is downstream of inhibition of MCL-1 or other apoptosis inhibiting proteins in cell lines that are dependent on them.
The live-cell readout on the IncuCyte permits tracking over time of the Caspase activation. […] The IncuCyte readout also allows one to normalize for cell number, as the suspension cells are hard to distribute evenly.
Signals were measured every 2 h for a duration of 22 h. The ratio of the Caspase mask to the Confluence mask, per image, as raw data, was calculated and the kinetic trace for every well was exported to Genedata Screener for analysis.
In Genedata Screener values for 6 h, 12 h, and 22 h from the kinetic traces were extracted. The values were normalized against negative controls (untreated cells). A standard dose-response analysis was performed on the normalized data.
The following data was reported at each of the following three aforementioned time points: (a) The dose-response curve, (b) The qAC50 and qAC50 Mode, and (c) Max Activity.
Cells were maintained in culture medium containing 10% Heat Inactivated (HI) FBS, 2 mM L-Glutamine and 50 μg/mL Gentamycin phenol red free RPMI-1640. Cells were split at 0.4 million/mL twice a week.
On Day 1, plates containing individual wells with test compounds at 10 mM concentration, 150 nL per well. The final concentrations range from […] compound (and no compound control) and compounds were thawed at room temperature for 1 hour. 25 μl of prewarmed medium was added into each well by multidrop (column 1, 3-22, 24), followed by addition of DMSO control (0.6% DMSO) in column 2. The plate was sealed using Breathe-Easy® sealing membrane and shaken for 30 min at room temperature to dissolve the test compound(s) in medium. The plate was then kept in the incubator for 1 hour at 37° C., 5% CO2.
MOLP8 cells in medium at […] (20000/50 μl final in assay) were prepared with CellEvent™ Caspase-3/7 Green Detection Reagent at 4 μM (2 μM final in assay). Once prepared, the cells were added to the test compound plate in an amount of 20000 and the plate was immediately placed in the IncuCyte and imaging started using following settings: 10× objective, 2 s exposure time in green channel, interval of 2 h, acquisition stopped after 22 h.
For analysis in IncuCyte, a Basic Analysis protocol was defined to calculate the “confluence” and “caspase” areas from the “Phase” and “green” images, respectively, as follows: (a) Confluence: Segmentation Adjustment 1, Hole Fill 0, Adjust Size −2, No filters (b) Caspase: Top-Hat segmentation, Radius 10, Threshold 0.3 GCU, Edge Split On with sensitivity 0, Hole Fill 0, Adjust Size 1, and filter on a minimum Area of 20 μm^2. The analyzer is trained on a sufficient number of positive and negative control wells, as well as compound treated wells, verifying that the “confluence” layer detects both live and dead (condensed) cells. […]

[1] = biological target: Myeloid Cell Leukemia 1 (Mcl-1) (Homo sapiens, UniProt Q07820); test: biochemical; type: binding; conditions: HTRF Ki (nM)
Myeloid Cell Leukemia 1 (Mcl-1), sequence (Q07820 whole entry): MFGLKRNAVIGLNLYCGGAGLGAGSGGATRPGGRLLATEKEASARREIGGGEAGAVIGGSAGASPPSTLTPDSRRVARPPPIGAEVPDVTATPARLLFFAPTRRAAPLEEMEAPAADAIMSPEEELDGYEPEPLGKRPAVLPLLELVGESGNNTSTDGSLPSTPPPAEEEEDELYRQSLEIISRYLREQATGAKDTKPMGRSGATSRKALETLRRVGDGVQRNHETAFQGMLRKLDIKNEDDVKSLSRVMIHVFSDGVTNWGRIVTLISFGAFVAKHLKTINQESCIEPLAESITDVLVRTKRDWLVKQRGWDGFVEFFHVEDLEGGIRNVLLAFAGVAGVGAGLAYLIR

[2] = tested on: MOLP-8 human multiple myeloma cell line; test: MOLP8 Caspase-Glo 3/7 luminescent assay; type: cell-based; conditions: averaged over all runs on all batches
From the text: as §1
The Caspase-Glo® 3/7 Assay is a luminescent assay that measures caspase-3 and -7 activities in purified enzyme preparations or cultures of adherent or suspension cells. The assay provides a proluminescent caspase-3/7 substrate, which contains the tetrapeptide sequence DEVD. This substrate is cleaved to release aminoluciferin, a substrate of luciferase used in the production of light. Addition of the single Caspase-Glo® 3/7 Reagent in an “add-mix-measure” format results in cell lysis, followed by caspase cleavage of the substrate and generation of a “glow-type” luminescent signal.
This assay uses the MOLP-8 human multiple myeloma cell line, which is sensitive to MCL-1 inhibition.
Cell cultures were maintained between 0.2 and 2.0×10^6 cells/mL. The cells were harvested by collection in 50 mL conical tubes. The cells were then pelleted at 500 g for 5 mins before removing supernatant and resuspension in fresh pre-warmed culture medium. The cells were counted and diluted as needed.
The assay reagent was prepared by transferring the buffer solution to the substrate vial and mixing. The solution may be stored for up to 1 week at 4° C. with negligible loss of signal.
Compounds were delivered in assay-ready plates (Proxiplate) and stored at −20° C.
Assays always include 1 reference compound plate containing reference compounds. The plates were spotted with 40 nL of compounds (0.5% DMSO final in cells; serial dilution; 30 μM highest conc. 1/3 dilution, 10 doses, duplicates). The compounds were used at room temperature and 4 μL of pre-warmed media was added to all wells except column 2 and 23. The negative control was prepared by adding 1% DMSO in media. The positive control was prepared by adding the appropriate positive control compound in final concentration of 60 μM in media. The plate was prepared by adding 4 μL negative control to column 23, 4 μL positive control to column 2 and 4 μL cell suspension to all wells in the plate. The plate with cells was then incubated at 37° C. for 2 hours. The assay signal reagent is the Caspase-Glo solution described above, and 8 μL was added to all wells. The plates were then sealed and measured after 30 minutes.
The activity of a test compound was calculated as percent change in apoptosis induction as follows: […]

[3] = read-out: MOLP8 Caspase 3/7 AC50 at 6 h, 6 h
[4] = read-out: MOLP8 Caspase 3/7 AC50 at 12 h, 12 h
[5] = read-out: MOLP8 Caspase 3/7 AC50 at 22 h, 22 h
[6] = MOLP8 cells, 2 hours incubation, read-out: MOLP8 Caspase-Glo AC50
[7] = read-out: MOLP8 Caspase-Glo AC50, MOLP8 cells, 2 hours incubation
[8] = Homo sapiens, MOLP-8, 2 h, read-out: MOLP8 Caspase-Glo AC50 (nM), MOLP8 cells, 2 hours incubation

Structure (SMILES)	AC50 (MOLP8 cell line; [3]) [nM]	AC50 (MOLP8 cell line; [4]) [nM]	AC50 (MOLP8 cell line; [5]) [nM]	Ki [1]	AC50 [2, 6] [nM]	AC50 [2, 7] [nM]	AC50 [2, 8] [nM]	AC50 ([2]; Homo sapiens, MOLP-8, 2 h, MOLP8 cells, 2 hours incubation, read-out: MOLP8 Caspase-Glo AC50) [nM]
Cc1nn(CCN(C)C)c2c1-c1c(Cl)ccc3c(c(C(=O)O)n(C)c13)CCCOc1cc(cc3ccccc13)SCc1cc(nn1C)CN(C)C2 (single isomer, unassigned) [Compound 19]	1090	990	990	0.08 nM and 0.18 nM	233	–	–	–
Cc1c2c(nn1CCN(C)C)CN(C)Cc1cc(n(C)n1)CSc1cc(c3ccccc3c1)OCCCc1c(C(=O)O)n(C)c3c-2c(Cl)ccc13 (single isomer, unassigned) [Compound 20]	290	320	330	0.06 nM and 0.03 nM	83	–	–	–
Cc1c2c(nn1CCN(C)C)CN(C)Cc1cc(n(C)n1)CSc1cc(c3ccccc3c1)OCCCc1c(C(=O)O)n(C)c3c-2c(Cl)ccc13 (single isomer, unassigned) [Compound 21]	3160	2960	3090	0.49 nM and 0.31 nM	1600	–	–	–
Cc1nn(CCN(C)C)c2c1-c1c(Cl)ccc3c(c(C(=O)O)n(C)c13)CCCOc1cc(cc3ccccc13)SCc1cc(nn1C)CN(C)C2 (single isomer, unassigned) [Compound 22]	~17400	~17000	~17000	3.73 nM and 3.07 nM	14500	–	–	–
Cc1[nH]nc2c1-c1c(Cl)ccc3c(c(C(=O)O)n(C)c13)CCCOc1cc(cc3ccccc13)SCc1cc(nn1C)CN(C)C2 (single isomer, unassigned) [Compound 23]	450	450	420	0.07 nM and 0.03 nM	–	215	–	–
Cc1[nH]nc2c1-c1c(Cl)ccc3c(c(C(=O)O)n(C)c13)CCCOc1cc(cc3ccccc13)SCc1cc(nn1C)CN(C)C2 (single isomer, unassigned) [Compound 24]	~10500	12000	11500	1.2 nM and 1.87 nM	–	8160	–	–
COCCn1nc(C)c2c1CN(C)Cc1cc(n(C)n1)CSc1cc(c3ccccc3c1)OCCCc1c(C(=O)O)n(C)c3c-2c(Cl)ccc13 (single isomer, unassigned) [Compound 26]	8290	7960	8610	4.14 nM and 5.54 nM	–	–	4330	–
COCCn1nc2c(c1C)-c1c(Cl)ccc3c(c(C(=O)O)n(C)c13)CCCOc1cc(cc3ccccc13)SCc1cc(nn1C)CN(C)C2 (single isomer, unassigned) [Compound 27]	100	100	90	0.03 nM and 0.06 nM	–	36	–	–
COCCn1nc2c(c1C)-c1c(Cl)ccc3c(c(C(=O)O)n(C)c13)CCCOc1cc(cc3ccccc13)SCc1cc(nn1C)CN(C)C2 (single isomer, unassigned) [Compound 28]	~20700	13400	11400	9.8 nM and 9.39 nM	–	5400	–	–
COCCOCCn1nc(C)c2c1CN(C)Cc1cc(n(C)n1)CSc1cc(c3ccccc3c1)OCCCc1c(C(=O)O)n(C)c3c-2c(Cl)ccc13 (single isomer, unassigned) [Compound 29]	60	62	60	0.06 nM and 0.03 nM	23	–	–	–
COCCOCCn1nc(C)c2c1CN(C)Cc1cc(n(C)n1)CSc1cc(c3ccccc3c1)OCCCc1c(C(=O)O)n(C)c3c-2c(Cl)ccc13 (single isomer, unassigned) [Compound 30]	2010	2140	2230	0.81 nM and 0.75 nM	971	–	–	–
COCCOCCn1nc2c(c1C)-c1c(Cl)ccc3c(c(C(=O)O)n(C)c13)CCCOc1cc(cc3ccccc13)SCc1cc(nn1C)CN(C)C2 (single isomer, unassigned) [Compound 31]	160	160	160	0.04 nM and 0.03 nM	39	–	–	–
COCCOCCn1nc2c(c1C)-c1c(Cl)ccc3c(c(C(=O)O)n(C)c13)CCCOc1cc(cc3ccccc13)SCc1cc(nn1C)CN(C)C2 (single isomer, unassigned) [Compound 32]	~27500	~21500	~20000	7.44 nM and 8.51 nM	12100	–	–	–
Cc1nn(CCCN2CCOCC2)c2c1-c1c(Cl)ccc3c(c(C(=O)O)n(C)c13)CCCOc1cc(cc3ccccc13)SCc1cc(nn1C)CN(C)C2 (single isomer, unassigned) [Compound 33]	300	240	340	0.03 nM	94	–	–	–
Cc1nn(CCCN2CCOCC2)c2c1-c1c(Cl)ccc3c(c(C(=O)O)n(C)c13)CCCOc1cc(cc3ccccc13)SCc1cc(nn1C)CN(C)C2 (single isomer, unassigned) [Compound 34]	2250	2540	2320	0.47 nM and 0.68 nM	1000	–	–	–
Cc1c2c(nn1CCCN1CCOCC1)CN(C)Cc1cc(n(C)n1)CSc1cc(c3ccccc3c1)OCCCc1c(C(=O)O)n(C)c3c-2c(Cl)ccc13 (single isomer, unassigned) [Compound 36]	6140	5770	4290	1.34 nM and 2.06 nM	–	–	–	2820
Cc1c2c(nn1CCO)CN(C)Cc1cc(n(C)n1)CSc1cc(c3ccccc3c1)OCCCc1c(C(=O)O)n(C)c3c-2c(Cl)ccc13 (single isomer, unassigned) [Compound 38]	5490	5390	5160	0.7 nM and 0.48 nM	–	–	3050	–
